Measurements: patent US9186369B2, “Purine nucleoside analogues for treating flaviviridae including hepatitis C” (Idenix Pharmaceuticals, Inc., priority 2003, dated 2015)

Each compound was assayed on MDK (assay: Cytotoxicity assay (sulforhodamine staining, CC50)). Conditions: MDK cells; 4 days incubation; concentration reducing cell number by 50%; preliminary results.
Format: cell-based
Description: Cells are seeded at a rate of between 5×10^3 and 5×10^4/well into 96-well plates in growth medium overnight at 37° C. in a humidified CO2 (5%) atmosphere. New growth medium containing serial dilutions of the drugs is then added. After incubation for 4 days, cultures are fixed in 50% TCA and stained with sulforhodamine. The optical density was read at 550 nm. The cytotoxic concentration was expressed as the concentration required to reduce the cell number by 50% (CC50).

`C[C@]1(CO)O[C@@H](n2cnc3c(=O)[nH]c(N)nc32)[C@H](O)[C@@H]1O` [β-D-4′-CH3-riboG] and `C[C@]1(CO)O[C@@H](n2cnc3c(N)ncnc32)[C@H](O)[C@@H]1O` [β-D-4′-CH3-riboA] cannot be ordered by CC50: > 250 µM for the first, > 250 µM for the second.

`CC1(CO)OC(n2cc(F)c(=O)[nH]c2=O)C(O)C1O` [β-D-4′-CH3-ribo-5-fluoroU] and `Cc1cn([C@@H]2O[C@](C)(CO)[C@@H](O)[C@H]2O)c(=O)[nH]c1=O` [β-D-4′-CH3-riboT] cannot be ordered by CC50: > 167 µM for the first, > 250 µM for the second.

`C[C@]1(CO)O[C@@H](n2ccc(=S)[nH]c2=O)[C@H](O)[C@@H]1O` [β-D-4′-CH3-ribo-4-thioU] and `C[C@]1(CO)O[C@@H](n2ccc(N)nc2=O)[C@H](O)[C@@H]1O` [β-D-4′-CH3-riboC] cannot be ordered by CC50: > 250 µM for the first, > 250 µM for the second.
